Assay results published in patent publication US8409560B2, “Solid dispersion formulations and methods of use thereof” (Zalicus Pharmaceuticals Ltd., priority 2011, dated 2013).
Several values for one entry are separate records, joined by “and”; a condition that tells them apart may be missing. Equal values may be shown once. Read-outs that look alike come from different tables or passages of the source.

Columns and labels:
[1] = Phase I (Group 2) study of HME or SDD formulations in healthy human subjects, fed (standard meal); format: in vivo; settings: 225 mg HME or SDD oral; for half-life: human, plasma, po, 225 mg
Description: Bioavailability of the ion channel modulator compound 1 was studied in healthy human subjects using SDD and HME formulations, with subjects in a fed state. The effect the SDD or HME formulation on bioavailability following a single oral dose under fed conditions was thereby evaluated and compared. Safety and tolerability of compound 1 was also evaluated.
This study utilized a single-center, single-dose open-label, 2-group, 2-period randomized crossover design to determine bioavailability following treatment with the SDD or HME formulation under fed conditions. A total of 16 subjects were selected by the criteria described in Example 10.
Subjects were treated with an oral dose of 225 mg HME (as described in Example 8, Table 14) or 225 mg SDD (as described in Example 7) with approximately 8 fluid ounces of water in the fed (standard meal) state. Subjects were randomized between HME and SDD formulations in equal numbers during period 1 of the trial, and, following a washout period, assigned to the opposite formulation during period 2. The fed condition is defined as the state of a subject following an overnight fast of at least 10 hours with a test meal provided 30 minutes prior to administration of the study drug. The subject must completely consume their respective meal before being dosed. Meals were standardized and standard meals were served according to a pre-determined schedule throughout the inpatient portion of the study. A standardized meal derived approximately 35% of total caloric content of the meal from fat, approximately 15-20% from protein, and approximately 45-50% from carbohydrates, with a total caloric content of approximately 400-450 calories. An example test meal would have included ⅝ ounces Cheerios®, 1 egg, 1 strip of bacon, 1 slice of toast with margarine, 6 ounces of low fat milk, and 4 ounces of orange juice. The time of food intake before and after study drug administration was documented. Water was allowed as desired except for one hour before and after drug administration. Outside of these restrictions, subjects in both fed and fasted conditions were provided fluid intake according to the subject's individual needs, with documentation. HME and SDD groups were dosed and evaluated simultaneously.
Treatments of 225 mg HME or SDD were administered on day 1 of period 1 of the trial and subjects were admitted to the clinical research unit (CRU) for four days of inpatient evaluation. Subjects were discharged from the CRU upon completion of assessments on day 4, and reported to the CRU for additional pharmacokinetic blood sampling and safety assessment on days 5 and 6, completing period 1. There was a 7-day washout between the first and second period drug administrations. In the second period, subjects were treated with an oral dose of 225 mg HME or 225 mg SDD in the fed (standard meal) state. The treatment was administered on day 1 of period 2 of the trial and subjects were admitted to the clinical research unit (CRU). Subjects were discharged from the CRU upon completion of assessments on day 4, and reported to the CRU for additional and followup pharmacokinetic blood sampling and safety assessment on days 5, 6, 8, 15, 22, 29, and 36 of period 2.
Pharmacokinetic assessments conducted during each treatment period were performed by the collection of venous blood samples via indwelling catheter or direct venipuncture. The plasma concentrations of the drug was determined for each sample. Concentration of the drug was determined using a validated liquid chromatography coupled with tandem mass (LC/MS/MS) assay, with a lower limit of quantitation (LLOQ) of 0.1 ng/mL. Descriptive statistics were calculated for these parameters and tabulated by formulation and period. Safety of the trial subjects was assessed by the following endpoints: adverse events, vital signs, ECG parameters, laboratory parameters, medical history, and physical examination. […]

[2] = Caco-2 apparent intestinal permeability; format: in vitro ADME; settings: for recovery at 60 min, 1 μM: read-out: Percent Recovery
Source text: (§1) Absorption of particular drugs may be limited by biological factors, such as reduced cellular permeability in the intestine. Many cellular mechanisms can influence permeability, such as reduced passive paracellular and transcellular transport or increased active export by the efflux transporter protein P-glycoprotein. Thus, the use of self-emulsifying carriers may not be beneficial for drugs having limited cellular permeability, where methods to increase the solubilization of a drug may not increase its permeability in the gastrointestinal tract. Experiments were conducted to assess the apparent intestinal permeability of compound 1 using a Caco-2 cell model.
(§2) Briefly, Caco-2 cells were used as an in vitro model for predicting absorption through the intestinal epithelium. Confluent monolayers of Caco-2 cells were grown on collagen-coated, microporous, polycarbonate membranes (12-well Costar Transwell® plates) that are placed between two chambers. The apical side of the monolayer was exposed to the buffer solution in a first chamber, but the basolateral side of the monolayer adhered to microporous membranes fluidically connected to a second chamber. The dosing solution was added to the first chamber for measurements in the apical-to-basolateral direction (A-to-B) and to the second chamber for measurements in the basolateral-to-apical direction (B-to-A). […] The permeability assay buffer was Hanks Balanced Salt Solution containing 10 mM HEPES and 15 mM glucose at a pH of 7.4. The buffer in the receiver chamber also contained 1% bovine serum albumin. The dosing solution concentration was 1 μM of compound 1 in the assay buffer. All donor chambers were first pre-incubated for five minutes with dosing solution to attempt to saturate any non-specific binding sites on the device with test compound. After five minutes, the solution was removed and replaced with fresh dosing solution, and time was recorded as 0. Cell monolayers were dosed on the apical side/first chamber (for A-to-B measurements) or basolateral side/second chamber (for B-to-A measurements) and incubated at 37° C. with 5% CO2 in a humidified incubator. At 30 and 60 minutes, aliquots were taken from the receiver chambers and replaced with fresh assay buffer. Samples were taken from the donor chamber at 0 and 60 minutes. Each experiment was performed in triplicate.
(§3) The apparent permeability (Papp), percent recovery, and efflux ratio were calculated as follows:
(§4) [formula] [formula] where
(§5) [formula] is the slope of the cumulative concentration in the receiver chamber as a function of time; Vr [cm^3] is the volume of the receiver chamber; Vd [cm^3] is the volume of the donor chamber; A [cm^2] is the area of the cell monolayer, which is estimated to be about 1.13 cm^2 for the 12-well Costar Transwell® plates; C0 [μM] is the measured concentration in the donor chamber at t=0 hours; CN [μM] is the nominal concentration of the dosing solution; Cr final [μM] is the cumulative concentration in the receiver chamber at the end of the incubation period; and Cd final [μM] is the cumulative concentration in the donor chamber at the end of the incubation period.
(§6) Thus, absorption of compound 1 in humans is not expected to be permeability limited.

Caco-2 cells = test: Caco-2 apparent intestinal permeability; format: in vitro ADME; settings: for Papp, replicates R1-R3: 1 μM
Source text: as §1, §2, §3, §4, §5, §6

Half-Life Ratio ([1]; ratio period 1 to period 2, Mean): 73%
half-life ([1]; period 1, Mean, read-out: Half-Life Period 1 (converted)): 139 h
half-life ([1]; period 2, Mean, read-out: Half-Life Period 2 (converted)): 166 h
recovery at 60 min, 1 μM ([2]; Caco-2, pH 7.4, Cell-free): 54%
Papp A→B at 60 min, 1 μM ([2]; human, Caco-2, pH 7.4, A-to-B, read-out: Papp Avg.): 5.15 ×10⁻⁶ cm/s
Papp A→B at 60 min, 1 μM ([2]; human, Caco-2, pH 7.4, A-to-B, read-out: Papp, replicates R1-R3): 4.37 ×10⁻⁶ cm/s
recovery at 60 min, 1 μM ([2]; human, Caco-2, pH 7.4, A-to-B): 28%
Papp B→A at 60 min, 1 μM ([2]; human, Caco-2, pH 7.4, B-to-A, read-out: Papp Avg.): 4.32 ×10⁻⁶ cm/s
Papp B→A at 60 min, 1 μM ([2]; human, Caco-2, pH 7.4, B-to-A, read-out: Papp, replicates R1-R3): 5.04 ×10⁻⁶ cm/s
recovery at 60 min, 1 μM ([2]; human, Caco-2, pH 7.4, B-to-A): 37%
efflux ratio at 60 min, 1 μM ([2]; human, Caco-2, pH 7.4, read-out: Efflux Ratio (Papp(B-to-A)/Papp(A-to-B))): 0.8
Papp, replicates R1-R3 (Caco-2 cells; A-to-B): 4.31 10^−6 cm/s
Papp, replicates R1-R3 (Caco-2 cells; B-to-A): 3.48 10^−6 cm/s
permeability classification (Caco-2 cells; Papp(A-to-B) more than 1.0×10^−6 cm/s): high permeability coefficient
efflux significance (Caco-2 cells; efflux ratio of less than 3): not considered significant
SMILES: O=C(CC(c1ccccc1)c1ccccc1)N1CCN(C(c2ccccc2)c2ccccc2)CC1 [Compound 1, 1-(4-benzhydrylpiperazin-1-yl)-3,3-diphenylpropan-1-one]
Half-Life Period 1 ([1]; period 1, individual subjects): 617 h and 79 h and 75 h and 270 h and 73 h and 115 h and 112 h and 92 h and 94 h and 163 h and 96 h and 114 h and 72 h and 105 h and 77 h
Half-Life Period 2 ([1]; period 2, individual subjects): 104 h and 171 h and 176 h and 417 h and 82 h and 106 h and 149 h and 155 h and 137 h and 400 h and 193 h and 98 h and 71 h and 116 h and 114 h
Half-Life Ratio ([1]; ratio period 1 to period 2, individual subjects): 76% and 44% and 43% and 65% and 89% and 108% and 75% and 59% and 69% and 41% and 50% and 116% and 101% and 91% and 68%
